Data reported in the NIST ThermoML archive (doi:10.1016/j.fluid.2016.10.026).

Conditions: for surface tension liquid-gas: Drop volume; for kinematic viscosity / speed of sound / mass density: Liquid; for kinematic viscosity: Capillary tube (Ostwald / Ubbelohde) method; for speed of sound: Frequency=3 MHz, Sing-around technique in a fixed-path interferometer; for mass density: Vibrating tube method

CC(=O)c1cccs1 [2-acetylthiophene]
Conditions | surface tension liquid-gas [mN/m]
278.15 K | 45.41
280.65 K | 45.14
283.15 K | 44.83
285.65 K | 44.58
288.15 K | 44.31
290.65 K | 44.01
293.15 K | 43.73
295.65 K | 43.46
298.15 K | 43.16

Conditions | kinematic viscosity [m2/s] | mass density [kg/m3] | speed of sound [m/s]
278.15 K, 101 kPa | 3.7e-06 | 1185.43 | 1538.3
280.65 K, 101 kPa | 3.44e-06 | 1183.04 | 1529.7
283.15 K, 100 kPa | – | 1180.61 | –
283.15 K, 101 kPa | 3.21e-06 | 1180.64 | 1521.2
283.15 K, 2000 kPa | – | 1181.78 | –
283.15 K, 5000 kPa | – | 1183.44 | –
283.15 K, 7000 kPa | – | 1184.54 | –
283.15 K, 10000 kPa | – | 1186.17 | –
283.15 K, 15000 kPa | – | 1188.81 | –
283.15 K, 20000 kPa | – | 1191.4 | –
283.15 K, 25000 kPa | – | 1193.92 | –
283.15 K, 30000 kPa | – | 1196.37 | –
283.15 K, 35000 kPa | – | 1198.77 | –
283.15 K, 40000 kPa | – | 1201.11 | –
283.15 K, 45000 kPa | – | 1203.39 | –
285.65 K, 101 kPa | 3e-06 | 1178.25 | 1512.7
288.15 K, 100 kPa | – | 1175.97 | –
288.15 K, 101 kPa | 2.81e-06 | 1175.86 | 1503.9
288.15 K, 2000 kPa | – | 1177.04 | –
288.15 K, 5000 kPa | – | 1178.73 | –
288.15 K, 7000 kPa | – | 1179.85 | –
288.15 K, 10000 kPa | – | 1181.52 | –
288.15 K, 15000 kPa | – | 1184.21 | –
288.15 K, 20000 kPa | – | 1186.85 | –
288.15 K, 25000 kPa | – | 1189.43 | –
288.15 K, 30000 kPa | – | 1191.93 | –
288.15 K, 35000 kPa | – | 1194.37 | –
288.15 K, 40000 kPa | – | 1196.76 | –
288.15 K, 45000 kPa | – | 1199.09 | –
290.65 K, 101 kPa | 2.64e-06 | 1173.47 | 1495
293.15 K, 100 kPa | – | 1171 | –
293.15 K, 101 kPa | 2.51e-06 | 1171.07 | 1486.3
293.15 K, 2000 kPa | – | 1172.28 | –
293.15 K, 5000 kPa | – | 1174.02 | –
293.15 K, 7000 kPa | – | 1175.16 | –
293.15 K, 10000 kPa | – | 1176.85 | –
293.15 K, 15000 kPa | – | 1179.61 | –
293.15 K, 20000 kPa | – | 1182.3 | –
293.15 K, 25000 kPa | – | 1184.93 | –
293.15 K, 30000 kPa | – | 1187.48 | –
293.15 K, 35000 kPa | – | 1189.98 | –
293.15 K, 40000 kPa | – | 1192.41 | –
293.15 K, 45000 kPa | – | 1194.78 | –
293.15 K, 50000 kPa | – | 1197.1 | –
293.15 K, 55000 kPa | – | 1199.35 | –
293.15 K, 60000 kPa | – | 1201.56 | –
293.15 K, 65000 kPa | – | 1203.71 | –
295.65 K, 101 kPa | 2.35e-06 | 1168.68 | 1477.8
298.15 K, 100 kPa | – | 1166.24 | –
298.15 K, 101 kPa | 2.22e-06 | 1166.29 | 1469
